The target of one test is T1, SjaM1Pase2 (Saccharina japonica, UniProt A0A2Z4BXC0).
T1 construct: codon-optimized synthetic gene, pGEX-6p-1 (EcoRI/NotI), E. coli BL21(DE3), GST-resin purified
T1 sequence (A0A2Z4BXC0 1-327): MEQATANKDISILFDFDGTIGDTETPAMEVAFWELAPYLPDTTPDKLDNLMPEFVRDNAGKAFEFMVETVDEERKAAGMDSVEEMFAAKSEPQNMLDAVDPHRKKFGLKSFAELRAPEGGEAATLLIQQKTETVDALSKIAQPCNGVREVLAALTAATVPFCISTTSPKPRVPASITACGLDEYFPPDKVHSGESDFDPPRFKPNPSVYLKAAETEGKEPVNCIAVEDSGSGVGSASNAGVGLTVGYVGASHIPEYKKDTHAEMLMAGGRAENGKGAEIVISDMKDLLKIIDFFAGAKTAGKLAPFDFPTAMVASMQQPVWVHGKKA
The experiment in a line: M1P phosphatase kinetics, Lineweaver-Burk. Type of test: biochemical. Conditions: apparent; 100 mM Tris-HCl buffer.

Another test deals with T2, SjaM1PDH2 (Saccharina japonica, UniProt A0A2Z4BWZ7).
T2 construct: codon-optimized synthetic gene, pET32a (EcoRI/NotI), E. coli BL21(DE3), His-resin purified
T2 sequence (A0A2Z4BWZ7 1-355): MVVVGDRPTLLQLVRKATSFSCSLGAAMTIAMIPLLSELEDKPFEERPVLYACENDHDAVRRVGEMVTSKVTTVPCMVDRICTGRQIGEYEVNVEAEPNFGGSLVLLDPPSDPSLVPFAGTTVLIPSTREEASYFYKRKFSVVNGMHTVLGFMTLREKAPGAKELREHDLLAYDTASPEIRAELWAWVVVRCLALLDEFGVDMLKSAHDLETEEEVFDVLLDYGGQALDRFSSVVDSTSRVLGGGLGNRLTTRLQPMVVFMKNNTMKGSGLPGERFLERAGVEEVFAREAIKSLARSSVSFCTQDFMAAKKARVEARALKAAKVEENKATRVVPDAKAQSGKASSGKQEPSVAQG
As to the kind of experiment: F6P reduction kinetics, Lineweaver-Burk. It counts as biochemical. Conditions: apparent; co-substrate NADH.

Molecules are shown by their SMILES.

Broadly, the Km is the substrate concentration at which the rate is half of its maximum. Turning to `O=P(O)(O)OC[C@@H](O)[C@@H](O)[C@H](O)[C@H](O)CO` [M1P], on SjaM1Pase2, the Michaelis constant (Km) was 20 µM.
In the case of `O=P(O)(O)OC[C@H]1OC(O)(CO)[C@@H](O)[C@@H]1O` (some centres unmarked) [F6P], on SjaM1PDH2, the Km turned out to be 2020 µM.

The values above are taken from publication PMC8242268, “Transcriptomic and Proteomic Analysis of Mannitol-metabolism-associated Genes in Saccharina japonica” (Genomics, Proteomics & Bioinformatics, 2020).
